Tests used:
ASPC1 cells = assay: Inhibition of KRas-mediated phosphorylation of ERK (Cisbio HTRF pERK), ASPC1 cells; format: cell-based; settings: Homo sapiens, AsPC-1 cells; for IC50: ASPC1, 3 h, 3 hr compound incubation, Cisbio pERK HTRF; for inhibition at 0.1 µM: ASPC1, single point at 100 nM, 3 hrs compound incubation
KRas G12C = KRas G12C (Homo sapiens, UniProt P01116, G12C); format: binding; settings: single point, 10 nM compound, read-out: Binding to KRas (% inhibition at 10 nM) G12C
H727 cells = assay: Inhibition of KRas-mediated phosphorylation of ERK (Cisbio HTRF pERK), H727 cells; format: cell-based; settings: Homo sapiens; for IC50: NCI-H727, 3 h, 3 hr compound incubation, Cisbio pERK HTRF; for inhibition at 0.1 µM: NCI-H727, single point at 100 nM, 3 hrs compound incubation
KRas G12R = KRas G12R (Homo sapiens, UniProt P01116, G12R); assay: biochemical; settings: Binding to KRas (IC50 nM) G12R, TR-FRET displacement, KRas G12R
KRas G12R, sequence (P01116 1-169 isoform P01116-2 G12R): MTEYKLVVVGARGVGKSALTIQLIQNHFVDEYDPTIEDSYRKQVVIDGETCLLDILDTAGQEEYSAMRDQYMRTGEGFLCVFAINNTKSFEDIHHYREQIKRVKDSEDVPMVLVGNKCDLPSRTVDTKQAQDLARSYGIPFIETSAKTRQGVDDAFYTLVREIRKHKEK

HCT116 cells = assay: Inhibition of KRas-mediated phosphorylation of ERK (Cisbio HTRF pERK), HCT116 cells; format: cell-based; settings: Homo sapiens; for IC50: HCT-116, 3 h, 3 hr compound incubation, Cisbio pERK HTRF; for inhibition at 0.1 µM: HCT-116, single point at 100 nM, 3 hrs compound incubation
KRas G12A = KRas G12A (Homo sapiens, UniProt P01116, G12A); format: binding; settings: single point, 10 nM compound, read-out: Binding to KRas (% inhibition at 10 nM) G12A
KRas G12A, sequence (P01116 1-169 isoform P01116-2 G12A): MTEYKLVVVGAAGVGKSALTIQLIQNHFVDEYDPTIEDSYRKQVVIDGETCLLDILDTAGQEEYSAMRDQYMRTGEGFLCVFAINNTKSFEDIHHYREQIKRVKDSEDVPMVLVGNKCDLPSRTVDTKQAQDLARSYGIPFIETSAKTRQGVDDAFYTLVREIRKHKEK

KRas G12V = KRas G12V (Homo sapiens, UniProt P01116, G12V); assay: biochemical; settings: Binding to KRas (IC50 nM) G12V, TR-FRET displacement, KRas G12V
KRas G12V, sequence (P01116 1-169 isoform P01116-2 G12V): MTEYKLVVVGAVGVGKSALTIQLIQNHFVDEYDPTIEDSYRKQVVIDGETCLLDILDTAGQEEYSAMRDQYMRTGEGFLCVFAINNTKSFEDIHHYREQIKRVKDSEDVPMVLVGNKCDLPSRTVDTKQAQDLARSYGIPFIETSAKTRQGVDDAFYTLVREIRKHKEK

A549 cells = assay: Inhibition of KRas-mediated phosphorylation of ERK (Cisbio HTRF pERK), A549 cells; format: cell-based; settings: Homo sapiens; for IC50: A549, 3 h, 3 hr compound incubation, Cisbio pERK HTRF; for inhibition at 0.1 µM: single point at 100 nM, 3 hrs compound incubation
PSN1 cells = assay: Inhibition of KRas-mediated phosphorylation of ERK (Cisbio HTRF pERK), PSN1 cells; format: cell-based; settings: Homo sapiens, PSN1, 3 h, 3 hour compound incubation, Cisbio pERK HTRF
Summary of the method: (§1)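 Seeding density of 6,000 cells per well was used, with cultures kept in RPMI/10% FBS from day 1.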

H358 cells = assay: Inhibition of KRas-mediated phosphorylation of ERK (Cisbio HTRF pERK), H358 cells; format: cell-based; settings: Homo sapiens; for IC50: NCI-H358, 3 h, 3 hr compound incubation, Cisbio pERK HTRF; for inhibition at 0.1 µM: NCI-H358, single point at 100 nM, 3 hrs compound incubation
KRas G12S = KRas G12S (Homo sapiens, UniProt P01116, G12S); format: binding; settings: single point, 10 nM compound, read-out: Binding to KRas (% inhibition at 10 nM) G12S
KRas G12S, sequence (P01116 1-169 isoform P01116-2 G12S): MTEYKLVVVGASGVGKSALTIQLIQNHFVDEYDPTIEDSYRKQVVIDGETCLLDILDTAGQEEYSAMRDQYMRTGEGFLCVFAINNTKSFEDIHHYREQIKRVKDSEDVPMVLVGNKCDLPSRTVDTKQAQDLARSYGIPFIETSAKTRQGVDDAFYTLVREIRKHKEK

H460 cells = assay: Inhibition of KRas-mediated phosphorylation of ERK (Cisbio HTRF pERK), H460 cells; format: cell-based; settings: Homo sapiens; for IC50: NCI-H460, 3 h, 3 hr compound incubation, Cisbio pERK HTRF; for inhibition at 0.1 µM: NCI-H460, single point at 100 nM, 3 hrs compound incubation
KRas G13D = KRas G13D (Homo sapiens, UniProt P01116, G13D); format: binding; settings: single point, 10 nM compound, read-out: Binding to KRas (% inhibition at 10 nM) G13D
KRas G13D, sequence (P01116 1-169 isoform P01116-2 G13D): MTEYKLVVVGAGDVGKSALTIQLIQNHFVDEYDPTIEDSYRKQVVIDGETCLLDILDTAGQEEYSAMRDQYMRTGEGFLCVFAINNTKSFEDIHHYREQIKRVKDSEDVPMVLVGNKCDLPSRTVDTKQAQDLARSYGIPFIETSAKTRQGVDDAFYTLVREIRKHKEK

MKN1 cells = assay: Inhibition of KRas-mediated phosphorylation of ERK (Cisbio HTRF pERK), MKN1 cells; format: cell-based; settings: Homo sapiens, MKN-1, 3 hour compound incubation, Cisbio pERK HTRF
Summary of the method: as §1

KRas WT = KRas WT (Homo sapiens, UniProt P01116); assay: KRas binding assay (TR-FRET displacement), KRas WT; settings: single point, 10 nM compound
KRas WT, sequence (P01116 1-169 isoform P01116-2): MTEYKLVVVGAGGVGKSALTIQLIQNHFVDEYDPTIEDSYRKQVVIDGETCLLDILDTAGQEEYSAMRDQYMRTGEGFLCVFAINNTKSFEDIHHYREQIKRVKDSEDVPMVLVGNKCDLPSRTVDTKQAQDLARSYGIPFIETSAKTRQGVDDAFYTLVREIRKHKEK

KRas G12D = KRas G12D (Homo sapiens, UniProt P01116, G12D); assay: biochemical; settings: Binding to KRas (IC50 nM) G12D, TR-FRET displacement, KRas G12D
KRas G12D, sequence (P01116 1-169 isoform P01116-2 G12D): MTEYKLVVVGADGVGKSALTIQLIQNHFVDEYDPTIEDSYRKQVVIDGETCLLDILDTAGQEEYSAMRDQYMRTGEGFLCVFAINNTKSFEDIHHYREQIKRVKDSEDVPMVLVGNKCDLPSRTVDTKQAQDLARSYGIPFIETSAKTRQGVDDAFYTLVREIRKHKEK

KRas Q61H = KRas Q61H (Homo sapiens, UniProt P01116, Q61H); assay: KRas binding assay (TR-FRET displacement), KRas Q61H; settings: single point, 10 nM compound
KRas Q61H, sequence (P01116 1-169 isoform P01116-2 Q61H): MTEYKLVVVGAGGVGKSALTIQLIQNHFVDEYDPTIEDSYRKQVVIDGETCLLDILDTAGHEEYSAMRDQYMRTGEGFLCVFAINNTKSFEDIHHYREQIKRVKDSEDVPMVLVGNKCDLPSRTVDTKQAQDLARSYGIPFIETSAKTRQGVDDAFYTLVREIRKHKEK

KRas G12C, sequence (P01116 1-169 isoform P01116-2 G12C): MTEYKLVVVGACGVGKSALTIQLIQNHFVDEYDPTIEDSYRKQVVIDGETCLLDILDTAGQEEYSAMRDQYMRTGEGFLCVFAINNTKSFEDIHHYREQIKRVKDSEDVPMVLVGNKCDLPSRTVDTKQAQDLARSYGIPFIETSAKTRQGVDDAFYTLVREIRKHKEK

| Compound | IC50 (ASPC1 cells) | inhibition at 0.01 µM (KRas G12C) | IC50 (H727 cells) | IC50 (KRas G12R) | IC50 (HCT116 cells) | inhibition at 0.01 µM (KRas G12A) | IC50 (KRas G12V) | IC50 (A549 cells) | IC50 (PSN1 cells) | IC50 (H358 cells) | inhibition at 0.01 µM (KRas G12S) | IC50 (H460 cells) | inhibition at 0.01 µM (KRas G13D) | IC50 (MKN1 cells) | inhibition at 0.01 µM (KRas WT) | IC50 (KRas G12D) | inhibition at 0.01 µM (KRas Q61H) | inhibition at 0.1 µM (HCT116 cells) | inhibition at 0.1 µM (A549 cells) | inhibition at 0.1 µM (H358 cells) | also measured |
| --- | --- | --- | --- | --- | --- | --- | --- | --- | --- | --- | --- | --- | --- | --- | --- | --- | --- | --- | --- | --- | --- |
| CCc1c(F)ccc2cc(O)cc(N3CCc4c(nc(OC[C@@]56CCCN5C[C@H](F)C6)nc4N4CCCCn5nc(C(=O)N(C)C)cc5C4)C3)c12 [Example 349, 5-(7-(8-ethyl-7-fluoro-3-hydroxynaphthalen-1-yl)-2-(((2R,7aS)-2-fluorohexahydro-1H-pyrrolizin-7a-yl)methoxy)-5,6,7,8-tetrahydropyrido[3,4-d]pyrimidin-4-yl)-N,N-dimethyl-4,5,6,7,8,9-hexahydropyrazolo[1,5-a][1,4]diazocine-2-carboxamide] | 8 nM | 99% | 2 nM | < 2 nM | 74 nM | 96% | < 2 nM | 6 nM | 862 nM | 2 nM | 99% | 24 nM | 96% | 3.9 nM | 96% | < 2 nM | 98% | 47% | 75% | 101% | inhibition at 0.1 µM (ASPC1 cells): 96%; inhibition at 0.1 µM (H727 cells): 86%; inhibition at 0.1 µM (H460 cells): 84% |
| CCc1c(F)ccc2cc(O)cc(N3CCc4c(nc(OC[C@@]56CCCN5C[C@H](F)C6)nc4N4CCCCn5nc(C(=O)N6CCOCC6)cc5C4)C3)c12 [Example 360, (5-(7-(8-ethyl-7-fluoro-3-hydroxynaphthalen-1-yl)-2-(((2R,7aS)-2-fluorotetrahydro-1H-pyrrolizin-7a(5H)-yl)methoxy)-5,6,7,8-tetrahydropyrido[3,4-d]pyrimidin-4-yl)-4,5,6,7,8,9-hexahydropyrazolo[1,5-a][1,4]diazocin-2-yl)(morpholino)methanone] | 9 nM | 100% | 4 nM | < 2 nM | 67 nM | 98% | < 2 nM | 9 nM | 1370 nM | 2 nM | 99% | 20 nM | 97% | 12 nM | 97% | < 2 nM | 97% | 49% |  |  | inhibition at 0.1 µM (H460 cells): 87% |
| CCc1c(F)ccc2cc(O)cc(N3CCc4c(nc(OC[C@@]56CCCN5C[C@H](F)C6)nc4N4CCCn5nc(C(=O)NC(C)C)c(C)c5C4)C3)c12 [Example 371, 5-(7-(8-ethyl-7-fluoro-3-hydroxynaphthalen-1-yl)-2-(((2R,7aS)-2-fluorohexahydro-1H-pyrrolizin-7a-yl)methoxy)-5,6,7,8-tetrahydropyrido[3,4-d]pyrimidin-4-yl)-N-isopropyl-3-methyl-5,6,7,8-tetrahydro-4H-pyrazolo[1,5-a][1,4]diazepine-2-carboxamide] | 3 nM | 98% | 5 nM | < 2 nM | 187 nM | 91% | < 2 nM | 9 nM | 5080 nM | 3 nM | 96% | 35 nM | 87% | 9.9 nM | 86% | 2 nM | 89% |  | 79% | 101% |  |

The remaining compounds from weak to strong by IC50 (ASPC1 cells), led by results:

| IC50 (ASPC1 cells) | inhibition at 0.01 µM (KRas G12C) | IC50 (H727 cells) | IC50 (KRas G12R) | IC50 (HCT116 cells) | inhibition at 0.01 µM (KRas G12A) | IC50 (KRas G12V) | IC50 (A549 cells) | IC50 (PSN1 cells) | IC50 (H358 cells) | inhibition at 0.01 µM (KRas G12S) | IC50 (H460 cells) | inhibition at 0.01 µM (KRas G13D) | IC50 (MKN1 cells) | inhibition at 0.01 µM (KRas WT) | IC50 (KRas G12D) | inhibition at 0.01 µM (KRas Q61H) | Compound | inhibition at 0.1 µM (HCT116 cells) | inhibition at 0.1 µM (A549 cells) | inhibition at 0.1 µM (H358 cells) | also measured |
| --- | --- | --- | --- | --- | --- | --- | --- | --- | --- | --- | --- | --- | --- | --- | --- | --- | --- | --- | --- | --- | --- |
| 9 nM | 99% | 20 nM | < 2 nM | 132 nM | 97% | < 2 nM | 36 nM | > 10000 nM | 6 nM | 99% | 43 nM | 98% | 6.9 nM | 97% | < 2 nM | 98% | CCc1c(F)ccc2cc(O)cc(N3CCc4c(nc(OC[C@@]56CCCN5C[C@H](F)C6)nc4N4CCCn5nc(C(=O)N(C)C)c(OC)c5C4)C3)c12 [Example 370, 5-(7-(8-ethyl-7-fluoro-3-hydroxynaphthalen-1-yl)-2-(((2R,7aS)-2-fluorohexahydro-1H-pyrrolizin-7a-yl)methoxy)-5,6,7,8-tetrahydropyrido[3,4-d]pyrimidin-4-yl)-3-methoxy-N,N-dimethyl-5,6,7,8-tetrahydro-4H-pyrazolo[1,5-a][1,4]diazepine-2-carboxamide] |  | 65% | 97% |  |
| 4 nM | 99% | 16 nM | < 2 nM | 111 nM | 93% | < 2 nM | 10 nM | 7400 nM | 4 nM | 99% | 25 nM | 94% | 20.6 nM | 94% | < 2 nM | 95% | CCc1c(F)ccc2cc(O)cc(N3CCc4c(nc(OC[C@@]56CCCN5C[C@H](F)C6)nc4N4CCCn5nc(N)c(Cl)c5C4)C3)c12 [Example 358, 4-(4-(2-amino-3-chloro-7,8-dihydro-4H-pyrazolo[1,5-a][1,4]diazepin-5(6H)-yl)-2-(((2R,7aS)-2-fluorohexahydro-1H-pyrrolizin-7a-yl)methoxy)-5,6-dihydropyrido[3,4-d]pyrimidin-7(8H)-yl)-5-ethyl-6-fluoronaphthalen-2-ol] | 50% |  |  | inhibition at 0.1 µM (ASPC1 cells): 95%; inhibition at 0.1 µM (H727 cells): 72%; inhibition at 0.1 µM (H460 cells): 90% |
| 2 nM | 100% | 3 nM | < 2 nM | 40 nM | 99% | < 2 nM | 5 nM | 2100 nM | 1 nM | 99% | 24 nM | 98% | 4.2 nM | 98% | < 2 nM | 99% | CCNC(=O)c1nn2c(c1Cl)CN(c1nc(OC[C@@]34CCCN3C[C@H](F)C4)nc3c1CCN(c1cc(O)cc4ccc(F)c(CC)c14)C3)CCC2 [Example 367, 3-chloro-N-ethyl-5-(7-(8-ethyl-7-fluoro-3-hydroxynaphthalen-1-yl)-2-(((2R,7aS)-2-fluorohexahydro-1H-pyrrolizin-7a-yl)methoxy)-5,6,7,8-tetrahydropyrido[3,4-d]pyrimidin-4-yl)-5,6,7,8-tetrahydro-4H-pyrazolo[1,5-a][1,4]diazepine-2-carboxamide] | 62% | 85% | 101% | inhibition at 0.1 µM (H460 cells): 83% |
